Measurements published in patent publication US20250057813A1, “APOPTOSIS RELATED PROTEIN IN THE TGF-BETA SIGNALING PATHWAY (ARTS) MIMETIC COMPOUNDS, COMPOSITIONS, METHODS AND USES THEREOF IN INDUCTION OF APOPTOSIS” (Carmel-Haifa University Economic Corporation Ltd., priority 2022, published 2025).
“Also recorded” adds a separate entry of the source.

What was measured:
binding of XIAP to Bcl-2 = molecular target: T1, binding of XIAP to Bcl-2 (Homo sapiens, UniProt P10415+P98170); assay: BiFC assay in A375 melanoma cells (Bcl-2-VC and XIAP-VN); format: cell-based; conditions: 20 μM B3, 24 h
T1 construct: expressed in transfected cells; host or cells: A375 melanoma cells
T1 sequence (P98170 whole entry): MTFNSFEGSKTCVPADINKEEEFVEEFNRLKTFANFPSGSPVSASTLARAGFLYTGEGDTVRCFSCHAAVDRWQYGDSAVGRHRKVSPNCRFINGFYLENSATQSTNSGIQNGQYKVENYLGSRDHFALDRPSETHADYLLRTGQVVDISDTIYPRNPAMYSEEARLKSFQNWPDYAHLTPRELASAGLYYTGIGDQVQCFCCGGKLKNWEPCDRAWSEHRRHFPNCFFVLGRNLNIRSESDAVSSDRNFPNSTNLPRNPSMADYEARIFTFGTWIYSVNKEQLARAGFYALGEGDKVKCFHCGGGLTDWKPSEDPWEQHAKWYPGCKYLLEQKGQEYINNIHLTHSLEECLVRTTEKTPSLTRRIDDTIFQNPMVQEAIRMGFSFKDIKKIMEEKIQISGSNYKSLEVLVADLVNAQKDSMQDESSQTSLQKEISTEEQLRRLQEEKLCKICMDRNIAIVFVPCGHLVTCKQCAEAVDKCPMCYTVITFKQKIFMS
T1 sequence (P10415 whole entry): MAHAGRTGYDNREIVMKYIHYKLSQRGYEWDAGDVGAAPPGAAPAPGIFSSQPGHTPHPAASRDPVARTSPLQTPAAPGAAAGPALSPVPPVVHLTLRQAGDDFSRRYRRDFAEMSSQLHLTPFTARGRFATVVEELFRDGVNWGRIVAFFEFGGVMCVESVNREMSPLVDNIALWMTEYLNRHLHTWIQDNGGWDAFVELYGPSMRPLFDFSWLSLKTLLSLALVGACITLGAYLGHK
Excerpt: (§1) The split-Venus BiFC system was used to evaluate close proximity indicating possible direct binding between pairs of proteins. The proteins were fused either to the N-terminal part of the Venus-YFP (yellow fluorescence protein) (VN) or the C-terminal part (VC). All Venus fragments were fused to the C-terminal sequences of these proteins. The Jun and Fos pair was used as a positive control (P.C.), and the Jun and FosdeltaZIP pair was used as a negative control (N.C.). A vector encoding dsRed was used as a transfection efficiency marker. Cells were seeded in 12 well plates overnight. Cells were then transfected with (Bcl-2-VC, ARTS-VN, XIAP-VN and XIAP-VC) for 24-36 hours. Cells were then treated with apoptotic inducing reagents for 24 hrs.

[1] = molecular target: T2, interaction between ARTS and Bcl2 (Homo sapiens, UniProt P10415); assay: BiFC assay between ARTS and Bcl-2; format: cell-based; conditions: 20 μM
T2 construct: expressed in transfected cells; host or cells: A-375 or HeLa wt cells (the legend names both)
T2 sequence (P10415 whole entry): as above
Excerpt: as §1

MCF10AT1K (M2) cells = assay: 3D BME culture of M2 organoids, light microscopy; format: cell-based, Human
Protocol: Cells were harvested from their growth plates using 0.25% trypsin EDTA. Collected cells were cultured in Cultrex® growth factor reduced Basement Membrane Extract (BME: Trevigen, Inc) as follows: An 8 chamber glass slide system (Lab-TEK® II, Naperville, IL) was coated with 60 μl BME [Barkan D. et al., Cancer Research (2008)](protein concentration between […]; thickness-1-2 mm). 5×10^3 cells per well were re-suspended in DMEM/F12 supplemented with 2.5% DHS and 2% BME and cultured on the coated slides. Slides were incubated at 37° C., 5% CO2 incubator. Cells were re-fed every 4 days. Cell morphology was monitored by light microscopy. Immunofluorescence images were captured by Nikon Al—R confocal laser scanning microscope (Haifa University, Haifa, Israel).

[2] = molecular target: T3, complex formation between XIAP and Bcl-2 (Homo sapiens, UniProt P10415+P98170); assay: Co-immunoprecipitation in HCT 116 XIAP KO cells transfected with GFP-XIAP and Flag-Bcl-2; format: cell-based; conditions: 20 uM B3
T3 construct: expressed in transfected cells; host or cells: HCT 116 XIAP KO cells
T3 sequence (P98170 whole entry): as the sequence (P98170 whole entry) above
T3 sequence (P10415 whole entry): as the sequence (P10415 whole entry) above
Protocol: Protein extracts were prepared with lysis buffer containing 150 mM NaCl, 50 mM Tris-HCl (pH 8), 1% NP-40, 0.5% deoxycholate acid with protease inhibitors (mini complete, Roche). Protein levels were determined and equal amounts were used for each sample. Lysates were pre-cleared with […] mouse IgG (Sigma) coupled with protein A/G sepharose mix (Amersham Biosciences). Complexes were incubated overnight at 4° C., followed by low-speed centrifugation. Supernatants were immunoprecipitated using […] of monoclonal anti-Bcl-2 antibodies (BD) overnight. Protein A/G sepharose beads were added to immunoprecipitate complex for 4 hours, collected and washed four times with PBS and then responded and heated in Sample buffer ×2 for 10 minutes.

[3] = molecular target: T4, binding between ARTS and p53 (Mus musculus, UniProt P02340); assay: Co-immuno-precipitation between ARTS and p53 in Sept4/ARTS KO MEFs; format: cell-based; conditions: B3 for 24 hrs
T4 construct: expressed in transfected cells; host or cells: Sept4/ARTS KO MEFs (per the earlier reading)
T4 sequence (P02340 whole entry): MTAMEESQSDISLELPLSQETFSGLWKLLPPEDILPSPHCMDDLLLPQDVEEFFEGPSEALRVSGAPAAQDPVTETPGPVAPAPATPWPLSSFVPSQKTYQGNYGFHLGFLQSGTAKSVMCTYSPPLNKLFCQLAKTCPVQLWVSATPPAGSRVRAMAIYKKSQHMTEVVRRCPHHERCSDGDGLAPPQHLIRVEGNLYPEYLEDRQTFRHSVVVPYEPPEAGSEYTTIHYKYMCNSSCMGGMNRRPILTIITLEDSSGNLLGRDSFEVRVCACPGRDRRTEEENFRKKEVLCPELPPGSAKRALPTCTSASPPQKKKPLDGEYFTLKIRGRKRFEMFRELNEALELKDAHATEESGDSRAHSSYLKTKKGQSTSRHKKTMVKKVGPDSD
Protocol: Cells were harvested and lysed with radioimmunoprecipitation assay (RIPA) buffer (Tris-HCl pH 7.5 50 mM, NaCl 150 mM, NP-40 (Igepal) 0.3%) containing protease inhibitor cocktail (Complete, Roche) and 100 μg/ml PMSF. Antibodies were used at 5 μg per […] protein and incubated overnight, rotating at 4° C. The next day, agarose beads conjugated to protein A/G (Santa Cruz Biotechnology) were added for 4 h with rotation at 4° C. Samples were centrifuged at 4° C. for 5 min and washed five times with RIPA buffer. Proteins were eluted from beads by 10 min of boiling in sample buffer and separated on 12% SDS-PAGE gel, followed by Western blot analysis.

A-375 cells = assay: Viability assay (SRB), cancer cell line screen; format: cell-based; conditions: Homo sapiens; A-375, 72 hours incubation; read-out: GI50 score
Protocol: (§2) The assay was performed at six tenfold serial dilutions of the B3 compounds: 10 mM (stock), 1 mM, 100 μM, 10 μM, 1 μM and 0.1 μM. The screen was performed on 93 cancer cell lines and PBMC as normal cell control. The B3 compound was incubated with the cells for 72 hours. The following cancer cell lines were screened:
(§3) The Sulforhodamine B (SRB) assay was used as a screening method. Briefly, the method relies on the property of SRB, to bind stoichiometrically to proteins under mild acidic conditions and to be extracted under basic conditions. Thus, the amount of bound dye can be used as a proxy for cell mass, which can then be extrapolated to measure cell proliferation. The protocol can be divided into four main steps: preparation of treatment, incubation of cells with treatment of choice, cell fixation and SRB staining and absorbance measurement.

93 cancer cell lines = assay: Viability assay (SRB), cancer cell line screen; format: cell-based; conditions: 72 hrs, 10 mM to 0.1 μM
Protocol: as §2, §3

Cn1ccnc1C(=O)c1ccc(NC(=O)C(=O)N[C@H](CO)Cc2ccccc2)cc1 [B3, (S)-N1-(1-hydroxy-3-phenylpropan-2-yl)-N2-(4-(1-methyl-1H-imidazole-2-carbonyl)phenyl)oxalamide]
binding of XIAP to Bcl-2 (binding of XIAP to Bcl-2): slightly increased; also recorded: increased | binding of ARTS to Bcl-2 ([1]; 3 hours): increase | binding of ARTS to Bcl-2 ([1]; 24 hours): no effect | cellular death (blebbing, cell shrinkage) (MCF10AT1K (M2) cells; 40 μM, 24 h): induced cellular death | cellular death (blebbing, cell shrinkage) (MCF10AT1K (M2) cells; increasing concentrations, 7 days, dose dependent): induced cellular death | complex formation between XIAP and Bcl-2 [2]: significantly increase | binding between ARTS and p53 [3]: reduces | GI50 (A-375 cells): 14.8 µM | sensitivity of cancer cell lines to B3 (93 cancer cell lines): sensitive
